Measured values from US11390580B2, “Anti-fungals targeting the synthesis of fungal shingolipids” (THE RESEARCH FOUNDATION FOR THE STATE UNIVERSITY OF NEW YORK, priority 2014, dated 2022).
Values after ≈ are worked out from the molar mass of the structure shown. Values joined by “and” are separate entries in the source; they are usually repeats but may differ in a detail not shown here. Equal entries are not always repeated. “Also recorded” adds a separate entry of the source. Where two headings read alike, the source gives them in different places.

Assays:
Pharmacokinetics of BHBM = assay type: in vivo, mice; conditions: preliminary studies
[1] = system: synthesis of GlcCer in mammalian (J774) cells; experiment: In vivo labeling with 3H palmitate, TLC of GlcCer; assay type: cell-based, murine; conditions: 3H palmitate labeling
Blastomyces dermatitis = experiment: In vitro susceptibility testing (MIC); assay type: cell-based; conditions: for BHBM 96 Hr 50%: MIC, FTL strains
[2] = system: Golgi morphology of C. albicans; experiment: C6-NBD-ceramide staining of the Golgi; assay type: cell-based, Candida albicans; conditions: 4 μg/ml
Experimental: (§1) The Golgi apparatus of C. neoformans and C. albicans was stained with C6-NBD-ceramide using a previously described protocol (Kmetzsch, L. et al. 2011), based on the property that this fluorescent lipid accumulates at the Golgi of either living or fixed cells (Pagano R. E. et al. 1989). […] Cell suspensions were then washed with the same buffer and incubated with C6-NBD-ceramide ([…]) for 16 h at 4° C. The cells were then incubated with bovine serum albumin (BSA, 1%) at 4° C. for 1 h to remove the excess of C6-NBD-ceramide. […] Louis, USA) for 30 min at room temperature. The cells were washed again with PBS and stained cell suspensions were mounted over glass slides as described above and analyzed under an Axioplan 2 (Zeiss, Germany).

P. aeruginosa PA14 = experiment: Antibacterial activity, LB agar well diffusion; conditions: up to 160 μg/mL, 30° C., 24 hr
Candida parapsilosis = experiment: In vitro susceptibility testing (MIC); assay type: cell-based; conditions: for BHBM 24 Hr 50% / BHBM 48 Hr 50%: MIC, FTL strains
[3] = system: intracellular C. neoformans; experiment: Intracellular effect in J774.16 macrophages; assay type: cell-based, Cryptococcus neoformans; conditions: dose-dependent, particularly after 12 and 24 hours
Experimental: After 2 hours of incubation, about 60-80% of macrophages have at least one C. neoformans cell internalized. At this time, wells were washed to remove extracellular fungal cells and fresh DMEM medium without serum and without mAb 18B7 but containing different concentrations of BHBM was added. […] At selected time points, 0, 6, 12 and 24 hours, extracellular cells were collected by washing and plated onto YPD for CFU counting of extracellular cells. Then, macrophages containing C. neofromans were lysed, collected and serial dilutions were plated onto YPD for CFU counting of intracellular fungal cells.

[4] = system: C. neoformans secreted vesicles; experiment: Vesicle secretion measured by vesicular sterols; assay type: cell-based, Cryptococcus neoformans
From the text: WF, white field; NBD-Cer, NBD-ceramide.

C. neoformans [5] = experiment: Synergistic assay (fractional inhibitory index, FIC)
[6] = system: C. neoformans sphingolipids; experiment: Sphingolipid levels by TLC and lipid mass spectrometry; assay type: cell-based, Cryptococcus neoformans
Experimental: Labeling fungal cells. […] Samples without drug were included as control. Before lipid extraction, lipid internal standards (C17 ceramide and C17 sphingosine) were added. Lipids were then extracted following the methods of […] and Bligh and Dyer and one fourth of the sample was aliquoted for determination of the inorganic phosphate. The remainder of the sample was subjected to base hydrolysis and then analyzed using LC/MS. Results were normalized with the inorganic phosphate levels.

Candida glabrata = experiment: In vitro susceptibility testing (MIC); assay type: cell-based
Sld8 = experiment: In vitro Sld8 activity; assay type: biochemical, C. neoformans
C. neoformans [7] = experiment: In vitro killing assay (time-kill, CFU); assay type: cell-based, Cryptococcus neoformans
Experimental: At the illustrated time points, aliquots were taken and diluted and 100 μL was plated onto yeast peptone dextrose (YPD) plates. YPD plates were incubated in a 30° C. incubator and, after 72 hours, colony forming units (CFU) were counted and recorded.

[8] = In vivo toxicity in uninfected mice
[9] = system: Golgi morphology of C. neoformans; experiment: C6-NBD-ceramide staining of the Golgi; assay type: cell-based, Cryptococcus neoformans; conditions: 4 μg/ml
Experimental: as §1

E. coli DH5α = experiment: Antibacterial activity, LB agar well diffusion; conditions: up to 160 μg/mL, 30° C., 24 hr
A549 cell line = experiment: In vitro toxicity; assay type: cell-based
[10] = system: synthesis of GlcCer in C. albicans cells; experiment: GlcCer synthesis in C. albicans; assay type: cell-based, Candida albicans
Pneumocystis murina = experiment: In vitro testing by ATP content (luciferin-luciferase); conditions: for inhibition at 0.1 µg/mL / inhibition at 1 µg/mL / inhibition at 10 µg/mL / inhibition at 100 µg/mL: read-out: percentage inhibition of ATP
Smt1 = experiment: In vitro Smt1 activity; assay type: biochemical, C. neoformans
Cryptococcus neoformans = experiment: In vitro susceptibility testing (MIC); assay type: cell-based
[11] = TLC, confirmed by mass spectrometry

## Cc1ccccc1C(=O)NN=Cc1ccc(O)c(Br)c1 [BHBM, N′-(3-bromo-4-hydroxybenzylidene)-2-methylbenzohydrazide]
Pharmacokinetics of BHBM
  tissue distribution, brain: found in the brain tissue
[1]
  inhibition of the synthesis of GlcCer: no significant changes
[1]; listed as #5271226
  inhibition of the synthesis of GlcCer: not in mammalian (J774) cells
Blastomyces dermatitis
  in vitro activity: good in vitro activity
  BHBM 96 Hr 50%: 1 and 2
Blastomyces dermatitis; 10 Fungus Testing Lab strains
  MIC range: 0.5 to 1 µg/mL
Blastomyces dermatitis; first listing r7-r78
  BHBM 96 Hr 50%: 1 and 0.5
[2]
  Golgi morphology: changes in the Golgi morphology were dramatic
P. aeruginosa PA14
  zone of inhibition: No zone of inhibition
Candida parapsilosis
  in vitro activity: not active
  BHBM 24 Hr 50%: >16
  BHBM 48 Hr 50%: >16
Candida parapsilosis; 3 MDP Lab strains
  MIC range: >32 µg/mL
Candida parapsilosis; first listing r7-r78
  BHBM 24 Hr 50%: >16
  BHBM 48 Hr 50%: >16
Candida parapsilosis; QC, Fungus Testing Lab
  MIC range: >16 µg/mL
[3]
  intracellular replication of C. neoformans: significantly decrease the intracellular replication
[4]
  secreted vesicles measured by sterol content: marked reductions of secreted vesicles
C. neoformans [5]; combined with Amphotericin B
  FIC index: 0.75
C. neoformans [5]; combined with Fluconazole
  FIC index: 0.38
C. neoformans [5]; combined with Tunicamycin
  interaction: synergistic
C. neoformans [5]; combined with caspofungin
  FIC index: 1
P. murina; 0.8 mg/Kg/twice a day, 13 days
  improvement in survival, low dose vs vehicle treated negative controls: the difference was not significant
P. murina; 0.8 or 1.6 mg/Kg/twice a day, 13 days
  survival, low dose vs high dose: low dose mice showed improved survival over the high dose mice
P. murina; 13 days of treatment
  number of asci and nuclei in lung homogenates vs negative control: No significant differences
[6]; TLC
  sphingosine-1-phosphate level: increased
[6]; [11]
  GlcCer level: decreased
  dihydroceramide level: increased
  sphingosine level: increased; also recorded: accumulation of sphingosines
[6]; data not shown
  level of IPC: does not decrease the level of IPC
Candida glabrata; 10 Fungus Testing Lab strains
  MIC range: 0.125 to 2 µg/mL
Candida glabrata; Nakaseomyces glabratus, read-out: MIC (moderately active)
  MIC: 8 to 16 µg/mL (≈ 24 to 48 µM)
Sld8
  in vitro activity of Sld8: does not inhibit
C. neoformans [7]
  incubation required to kill about 50% of the cells: at least 72 hours
C. neoformans [7]; time-kill assay
  type of killing: concentration-dependent killing
[8]; 1.2 mg/kg/day intraperitoneally for 60 days
  liver Aspartate aminotransferase (AST): 125±75 U/L
[8]; 60 days
  other blood parameters for liver and kidney function: normal
[8]; lungs, brains, kidney, spleen, liver, 60 days
  histological analysis of organs vs untreated uninfected mice: no difference
[8]; treated daily for 60 days
  appearance, weight, physical activity and behavior: appeared normal
[9]
  Golgi morphology: significant alterations in the Golgi morphology
E. coli DH5α
  zone of inhibition: No zone of inhibition
A549 cell line
  toxicity: slight to moderate toxicity
[10]
  synthesis of GlcCer: inhibited in a dose dependent manner
Pneumocystis murina; 24 h, read-out: IC50, P. murina
  IC50: 1.02 µg/mL (≈ 3.06 µM)
Pneumocystis murina; 24 h
  inhibition at 0.1 µg/mL: 6.64%
  inhibition at 1 µg/mL: 66.2%
  inhibition at 10 µg/mL: 88.2%
  inhibition at 100 µg/mL: 97%
Pneumocystis murina; 48 h, read-out: IC50, P. murina
  IC50: < 0.01 µg/mL
Pneumocystis murina; 48 h
  inhibition at 0.1 µg/mL: 76%
  inhibition at 1 µg/mL: 87.6%
  inhibition at 10 µg/mL: 94.6%
  inhibition at 100 µg/mL: 98.9%
Pneumocystis murina; 72 h, read-out: IC50, P. murina
  IC50: < 0.01 µg/mL
Pneumocystis murina; 72 h
  inhibition at 0.1 µg/mL: 63.8%
  inhibition at 1 µg/mL: 74.6%
  inhibition at 10 µg/mL: 93.6%
  inhibition at 100 µg/mL: 99.4%
Pneumocystis murina; 96 h, read-out: IC50, P. murina
  IC50: 2.02 µg/mL (≈ 6.06 µM)
Pneumocystis murina; 96 h
  inhibition at 0.1 µg/mL: 16.6%
  inhibition at 1 µg/mL: 44.5%
  inhibition at 10 µg/mL: 66.7%
  inhibition at 100 µg/mL: 91.5%
Pneumocystis murina; read-out: activity class by IC50, P. murina
  IC50: < 0.01 µg/mL
Smt1
  in vitro activity of Smt1: does not inhibit
Cryptococcus neoformans
  in vitro activity: good in vitro activity
Cryptococcus neoformans; 4 MDP Lab strains, clinical isolates resistant to fluconazole
  MIC range: 1 to 2 µg/mL
Cryptococcus neoformans; 8 MDP Lab strains, clinical isolates sensitive to fluconazole
  MIC range: 0.5 to 2 µg/mL
Cryptococcus neoformans; 13 Fungus Testing Lab strains
  MIC range: 0.25 to 8 µg/mL
Cryptococcus neoformans; Cryptococcus neoformans, read-out: MFC (minimum fungicidal concentration)
  MFC: 4 µg/mL (≈ 12 µM)
Cryptococcus neoformans; MIC, FTL strains
  BHBM 72 Hr 50%: 8 and >16 and 16
Cryptococcus neoformans; all Fluconazole-resistant C. neoformans strains
  sensitivity of Fluconazole-resistant strains: sensitive
